Reference: US7446199B2, “Compositions useful as inhibitors of protein kinases” (Vertex Pharmaceuticals Incorporated, priority 2003, dated 2008)

Experiments:
Aurora-2 = molecular target: T1, Aurora-2 (Homo sapiens, UniProt O14965); experiment: Inhibition of AUR-2, coupled enzyme assay; format: biochemical; details: 70 nM Aurora-2, 800 μM peptide LRRASLG, 30° C.
T1 construct: addition of 10 μL of Aurora-2 stock solution to give a final concentration of 70 nM
T1 sequence (O14965 1-403): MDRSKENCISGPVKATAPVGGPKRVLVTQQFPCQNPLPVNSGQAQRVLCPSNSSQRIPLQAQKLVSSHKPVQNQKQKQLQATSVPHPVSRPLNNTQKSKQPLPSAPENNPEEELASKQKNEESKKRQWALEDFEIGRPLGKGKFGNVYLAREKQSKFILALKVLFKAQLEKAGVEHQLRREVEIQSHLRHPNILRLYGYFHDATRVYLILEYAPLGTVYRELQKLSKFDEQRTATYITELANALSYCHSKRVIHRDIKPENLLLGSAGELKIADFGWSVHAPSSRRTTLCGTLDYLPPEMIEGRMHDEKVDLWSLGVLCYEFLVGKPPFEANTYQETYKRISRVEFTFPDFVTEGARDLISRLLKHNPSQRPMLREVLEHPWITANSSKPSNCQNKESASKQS
Procedure: Compounds are screened in the following manner for their ability to inhibit Aurora-2 using a standard coupled enzyme assay (Fox et al. (1998) Protein Sci 7, 2249). To an assay stock buffer solution containing 0.1M HEPES 7.5, 10 mM MgCl2, 1 mM DTT, 25 mM NaCl, 2.5 mM phosphoenolpyruvate, […], […], […], and 800 μM peptide (LRRASLG, American Peptide, Sunnyvale, Calif.) is added a DMSO solution of a compound of the present invention to a final concentration of 30 μM. The resulting mixture is incubated at 30° C. for 10 min. The reaction was initiated by the addition of 10 μL of Aurora-2 stock solution to give a final concentration of 70 nM in the assay. The rates of reaction are obtained by monitoring absorbance at 340 nm over a 5 minute read time at 30° C. using a BioRad Ultramark plate reader (Hercules, Calif.). The Ki values are determined from the rate data as a function of inhibitor concentration.

TAK1A-TAB fusion protein = molecular target: T2, TAK1A-TAB fusion protein (Homo sapiens, UniProt O43318); experiment: TAK-1 inhibition assay, radiometric filter binding assay; format: biochemical; details: 50 μM ATP, 12 μM bovine myelin basic protein, 20 nM TAK1A-TAB fusion protein
T2 construct: using 20 nM TAK1A-TAB fusion protein
T2 sequence (O43318 with tags, fused parts or gaps isoform O43318-2 limits assumed): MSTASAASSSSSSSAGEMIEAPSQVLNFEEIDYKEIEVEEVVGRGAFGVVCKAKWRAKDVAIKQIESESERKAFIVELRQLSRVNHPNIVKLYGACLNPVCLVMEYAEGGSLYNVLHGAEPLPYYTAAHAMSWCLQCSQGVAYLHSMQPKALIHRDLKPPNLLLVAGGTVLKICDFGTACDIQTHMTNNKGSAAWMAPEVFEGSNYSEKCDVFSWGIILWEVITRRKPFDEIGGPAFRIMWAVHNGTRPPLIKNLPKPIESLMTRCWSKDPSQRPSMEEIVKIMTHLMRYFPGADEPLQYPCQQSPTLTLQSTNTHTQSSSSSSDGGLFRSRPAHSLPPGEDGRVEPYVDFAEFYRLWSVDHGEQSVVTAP
Procedure: Compounds were screened for their ability to inhibit TAK1A kinase activity using a radiometric filter binding assay. Reactions were carried out in a solution containing Buffer A (100 mM HEPES (pH 7.5), 10 mM MgCl2), 25 mM NaCl, 2 mM DTT, and 1.5% DMSO. Final substrate concentrations in the assay were 50 μM ATP (a mixture of unlabeled ATP (Sigma Chemicals, St Louis, Mo.) and ^33P-labeled ATP (PerkinElmer Life Sciences, Boston, Mass.) for a final specific activity of 50 Ci/mol), and 12 μM bovine myelin basic protein (MBP, Vertex Pharmaceuticals, Cambridge, Mass.). Reactions were carried out at ambient temperature (˜20° C.) using 20 nM TAK1A-TAB fusion protein. Under these conditions the extent of reaction is linear with time for a period of 2 hours.
A test compound of the present invention (1 μL in DMSO) was combined with ATP and Buffer A in a final volume of 47 μL in a 96 well plate. Typically, a 6 point titration was conducted by preparing serial dilutions (from 10 mM compound stocks) with DMSO of the test compounds of the present invention in daughter plates, for final concentrations spanning 0.046 μM to 3.73 μM. The reaction was initiated by the addition of 20 μl of an enzyme stock solution consisting of TAK1A-TAB fusion (described by Sugita, T. et al. in Biochem. Biophys. Res. Comm. 2002, 297, 1277-1281), MBP, Buffer A, NaCl, and DTT. The reaction was allowed to proceed for two hours at ambient temperature, then quenched with an equal volume of 10 mM unlabeled ATP in 10% trichloroacetic acid. A 110 μL aliquot of the quenched reaction was transferred to a Multiscreen PH filter plate (Millipore, Billerica, Mass.) and allowed to incubate at ambient temperature overnight (typically 16-20 hours). Following incubation the filter plates were washed with 3×150 μL aliquots of 5% trichloroacetic acid using a modified Biotek Elx405 plate washer. A 70 μL aliquot of Microscint 20 scintillation fluid (PerkinElmer) was added to each well, and the plate was then sealed and read on a TopCount NXT microplate scintillation counter (PerkinElmer). The Ki values were determined from the rate data as a function of inhibitor concentration.

SMILES | Ki (Aurora-2) | Ki (TAK1A-TAB fusion protein)
CS(=O)(=O)Nc1ccc(-c2cnc3[nH]cc(-c4oncc4-c4cccc(F)c4F)c3c2)cc1 [Compound 98, N-(4-{3-[4-(2,3-Difluoro-phenyl)-isoxazol-5-yl]-1H-pyrrolo[2,3-b]pyridin-5-yl}-phenyl)-methane sulfonamide] | < 0.2 µM | 0.2 to 1 µM
CN1CCN(c2ccc(-c3cnc4[nH]cc(-c5oncc5-c5cccc(F)c5F)c4c3)cn2)CC1 [Compound 71, 3-[4-(2,3-Difluoro-phenyl)-isoxazol-5-yl]-5-[6-(4-methyl-piperazin-1-yl)-pyridin-3-yl]-1H-pyrrolo[2,3-b]pyridine] | < 0.2 µM | < 0.2 µM
COc1cnc2[nH]cc(-c3oncc3-c3cccc(Cl)c3Cl)c2c1 [Compound 49, 3-[4-(2,3-Dichloro-phenyl)-isoxazol-5-yl]-5-methoxy-1H-pyrrolo[2,3-b]pyridine] | < 0.2 µM | 0.2 to 1 µM
Clc1cccc(-c2cnoc2-c2c[nH]c3ncc(-c4cccnc4)cc23)c1Cl [Compound 99, 3-[4-(2,3-Dichloro-phenyl)-isoxazol-5-yl]-5-pyridin-3-yl-1H-pyrrolo[2,3-b]pyridine] | < 0.2 µM | 0.2 to 1 µM

Results, then the molecule that gave them:

Ki (Aurora-2) | Ki (TAK1A-TAB fusion protein) | SMILES
< 0.2 µM | < 0.2 µM | CN1CCN(c2ccc(-c3cnc4[nH]cc(-c5oncc5-c5cccc(F)c5F)c4c3)cc2)CC1 [Compound 70, 3-[4-(2,3-Difluoro-phenyl)-isoxazol-5-yl]-5-[4-(4-methyl-piperazin-1-yl)-phenyl]-1H-pyrrolo[2,3-b]pyridine methanesulfonate]
0.2 to 1 µM | 0.2 to 1 µM | Oc1cnc2[nH]cc(-c3oncc3-c3cccc(Cl)c3Cl)c2c1 [Compound 48, 3-[4-(2,3-Dichloro-phenyl)-isoxazol-5-yl]-1H-pyrrolo[2,3-b]pyridin-5-ol]
< 0.2 µM | < 0.2 µM | Fc1cccc(-c2cnoc2-c2c[nH]c3ncc(-c4ccc(N5CCNCC5)cc4)cc23)c1F [Compound 68, 3-[4-(2,3-Difluoro-phenyl)-isoxazol-5-yl]-5-(4-piperazin-1-yl-phenyl)-1H-pyrrolo[2,3-b]pyridine]
